Measured values published in ChEMBL document CHEMBL5625233, “Exploring positions 6 and 7 of a quinazoline-based scaffold leads to changes in selectivity and potency towards RIPK2/3 kinases” (Eur J Med Chem, 2023).
The source made the active and inactive calls. The rule behind the calls is not given here.

Columns and labels:
[1] = biological target: Vascular endothelial growth factor receptor 2 (Homo sapiens) (UniProt P35968); test: Inhibition of human KDR relative to control; design: concentration or dose not given beside the values; conditions: concentration not given here
[2] = biological target: T1, Receptor-interacting serine/threonine-protein kinase 4 (Homo sapiens, UniProt P57078); test: Inhibition of N-terminal polyHis-tagged human RIPK4 (1 to 321 residues) expressed in Sf9 cells using MBP as substrate preincubated for 15 mins followed by ATP addition measured after 90 mins by ADP-Glo assay
T1 sequence (P57078 whole entry): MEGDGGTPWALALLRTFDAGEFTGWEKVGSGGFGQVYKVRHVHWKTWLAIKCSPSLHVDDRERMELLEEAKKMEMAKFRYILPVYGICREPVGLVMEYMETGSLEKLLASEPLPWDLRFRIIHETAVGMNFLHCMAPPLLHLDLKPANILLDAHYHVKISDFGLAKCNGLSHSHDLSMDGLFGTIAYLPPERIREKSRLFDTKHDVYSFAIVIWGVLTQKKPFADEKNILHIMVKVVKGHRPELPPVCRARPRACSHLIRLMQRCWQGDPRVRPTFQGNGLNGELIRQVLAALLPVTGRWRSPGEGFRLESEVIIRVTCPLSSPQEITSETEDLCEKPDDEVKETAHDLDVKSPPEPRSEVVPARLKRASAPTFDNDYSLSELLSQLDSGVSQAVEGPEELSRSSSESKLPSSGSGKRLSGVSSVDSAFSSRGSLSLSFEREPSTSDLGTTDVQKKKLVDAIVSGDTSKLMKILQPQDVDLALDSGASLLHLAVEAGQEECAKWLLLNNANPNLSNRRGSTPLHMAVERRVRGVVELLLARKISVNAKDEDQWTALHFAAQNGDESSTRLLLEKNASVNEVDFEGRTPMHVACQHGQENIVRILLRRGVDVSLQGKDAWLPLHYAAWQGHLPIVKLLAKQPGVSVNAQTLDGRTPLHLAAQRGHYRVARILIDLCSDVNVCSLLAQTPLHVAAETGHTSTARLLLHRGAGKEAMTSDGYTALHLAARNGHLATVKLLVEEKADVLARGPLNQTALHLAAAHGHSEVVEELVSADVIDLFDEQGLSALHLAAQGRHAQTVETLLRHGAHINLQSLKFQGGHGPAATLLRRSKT

[3] = biological target: T2, Receptor-interacting serine/threonine-protein kinase 2 (Homo sapiens, UniProt O43353); test: Inhibition of RIPK2-mediated NF-kappaB signalling in MDP-treated human THP-1 cells preincubated for 30 mins followed by MDP addition measured after 24 hrs by luminescence based assay; type: cell-based
[4] = biological target: T2, Receptor-interacting serine/threonine-protein kinase 2; test: Inhibition of N-terminal polyHis-tagged human RIPK2 (8 to 310 residues) expressed in Sf9 cells using MBP as substrate preincubated for 15 mins followed by ATP addition measured after 90 mins by ADP-Glo assay
HT-29 = test: Cytotoxicity against human HT-29 cells assessed as cell viability at 10 uM incubated for 24 hrs by Cell Titer Glo assay; type: toxicity, cell-based; conditions: ht-29, 24 h
[5] = Metabolic stability in mouse plasma assessed as compound remaining at 5 uM incubated for 120 mins by ECHO-MS analysis; type: ADME, cell-free; conditions: for remaining at 2 h, 5 µM: read-out: Stability
[6] = biological target: T3, Receptor-interacting serine/threonine-protein kinase 3 (Homo sapiens, UniProt Q9Y572); test: Inhibition of N-terminal polyHis-tagged human RIPK3 (1 to 307 residues) expressed in Sf9 cells using MBP as substrate preincubated for 15 mins followed by ATP addition measured after 90 mins by ADP-Glo assay
Target sequence in this assay (Q9Y572 whole entry, the tested form may be a part): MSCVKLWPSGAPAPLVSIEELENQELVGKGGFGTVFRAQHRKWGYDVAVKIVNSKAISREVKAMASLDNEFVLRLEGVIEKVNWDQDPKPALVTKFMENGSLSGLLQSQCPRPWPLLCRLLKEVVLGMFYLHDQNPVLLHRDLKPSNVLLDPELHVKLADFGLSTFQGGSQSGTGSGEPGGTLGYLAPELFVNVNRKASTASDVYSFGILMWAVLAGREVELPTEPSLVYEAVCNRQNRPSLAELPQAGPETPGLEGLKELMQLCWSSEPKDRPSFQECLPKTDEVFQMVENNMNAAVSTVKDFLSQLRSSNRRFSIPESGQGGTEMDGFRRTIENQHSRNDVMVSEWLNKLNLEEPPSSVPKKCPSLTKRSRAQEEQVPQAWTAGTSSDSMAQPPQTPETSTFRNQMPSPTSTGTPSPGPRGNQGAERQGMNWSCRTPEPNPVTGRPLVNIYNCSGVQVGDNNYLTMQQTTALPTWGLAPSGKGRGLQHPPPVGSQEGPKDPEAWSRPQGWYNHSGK

[7] = Metabolic stability in human plasma assessed as compound remaining at 5 uM incubated for 120 mins by ECHO-MS analysis; type: ADME, cell-free; conditions: for remaining at 2 h, 5 µM: read-out: Stability; for Stability: 2 h, 5 µM
[8] = Metabolic stability in human liver microsomes assessed as compound remaining at 10 uM incubated for 45 mins by ECHO-MS analysis; type: ADME, Microsome; conditions: for Stability: microsomes, 0.75 h, 10 µM; for remaining at 0.75 h, 10 µM: liver microsomes, read-out: Stability
[9] = biological target: T4, Receptor-interacting serine/threonine-protein kinase 1 (Homo sapiens, UniProt Q13546); test: Inhibition of N-terminal polyHis-tagged human RIPK1 (1 to 321 residues) expressed in Sf9 cells using MBP as substrate preincubated for 15 mins followed by ATP addition measured after 90 mins by ADP-Glo assay
T4 sequence (Q13546 whole entry): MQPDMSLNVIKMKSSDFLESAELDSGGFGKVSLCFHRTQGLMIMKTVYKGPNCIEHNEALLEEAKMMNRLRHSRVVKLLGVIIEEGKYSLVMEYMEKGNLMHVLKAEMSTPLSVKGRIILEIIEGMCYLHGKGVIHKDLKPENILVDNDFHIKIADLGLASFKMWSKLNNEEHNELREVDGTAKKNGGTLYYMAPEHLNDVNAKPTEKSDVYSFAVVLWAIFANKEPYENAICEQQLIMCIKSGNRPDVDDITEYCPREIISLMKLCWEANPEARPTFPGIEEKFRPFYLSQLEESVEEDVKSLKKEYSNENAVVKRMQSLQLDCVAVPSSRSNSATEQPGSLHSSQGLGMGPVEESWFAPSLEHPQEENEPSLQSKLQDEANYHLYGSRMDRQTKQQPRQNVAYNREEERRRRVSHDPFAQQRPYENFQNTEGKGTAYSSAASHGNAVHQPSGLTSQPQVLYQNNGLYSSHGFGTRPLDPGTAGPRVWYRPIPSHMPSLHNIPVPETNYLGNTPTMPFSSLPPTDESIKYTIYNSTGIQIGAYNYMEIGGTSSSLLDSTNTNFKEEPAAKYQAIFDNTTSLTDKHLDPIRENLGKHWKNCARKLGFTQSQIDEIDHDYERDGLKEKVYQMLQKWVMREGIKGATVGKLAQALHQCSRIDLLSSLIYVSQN

[10] = biological target: T2, Receptor-interacting serine/threonine-protein kinase 2; test: Inhibition of RIPK2-mediated NF-kappaB signalling in C14-TriLAN-Gly-treated human THP-1 cells preincubated for 30 mins followed by C14-TriLAN-Gly addition measured after 24 hrs by luminescence based assay; type: cell-based
[11] = Metabolic stability in mouse liver microsomes assessed as compound remaining at 10 uM incubated for 45 mins by ECHO-MS analysis; type: ADME, Microsome; conditions: read-out: Stability
[12] = biological target: Epidermal growth factor receptor (Homo sapiens) (UniProt P00533); test: Inhibition of human EGFR relative to control; conditions: concentration not given here
[13] = biological target: T3, Receptor-interacting serine/threonine-protein kinase 3; test: Inhibition of N-terminal polyHis-tagged human RIPK3 (1 to 307 residues) expressed in Sf9 cells using MBP as substrate upto 10 uM preincubated for 15 mins followed by ATP addition measured after 90 mins by ADP-Glo assay; conditions: time 105.0 min
Target sequence in this assay (Q9Y572 whole entry, looked up, the tested form may be a part): as the sequence (Q9Y572 whole entry, the tested form may be a part) above

[14] = biological target: T2, Receptor-interacting serine/threonine-protein kinase 2; test: Inhibition of RIPK2-mediated NF-kappaB signalling in MDP-treated human THP-1 cells upto 10 uM preincubated for 30 mins followed by MDP addition measured after 24 hrs by luminescence based assay; type: cell-based
[15] = biological target: T2, Receptor-interacting serine/threonine-protein kinase 2; test: Inhibition of RIPK2-mediated NF-kappaB signalling in C14-TriLAN-Gly-treated human THP-1 cells upto 10 uM preincubated for 30 mins followed by C14-TriLAN-Gly addition measured after 24 hrs by luminescence based assay; type: cell-based
[16] = biological target: Serine/threonine-protein kinase 10 (Homo sapiens) (UniProt O94804); test: Inhibition of human LOK relative to control; conditions: concentration not given here
[17] = biological target: MAP kinase-interacting serine/threonine-protein kinase 2 (Homo sapiens) (UniProt Q9HBH9); test: Inhibition of human MNK2 relative to control; conditions: concentration not given here
[18] = biological target: Tyrosine-protein kinase Fyn (Homo sapiens) (UniProt P06241); test: Inhibition of human FYN relative to control; conditions: concentration not given here
[19] = biological target: Tyrosine-protein kinase Lyn (Homo sapiens) (UniProt P07948); test: Inhibition of human LYN relative to control; conditions: concentration not given here
[20] = biological target: Tyrosine-protein kinase ABL1 (Homo sapiens) (UniProt P00519); test: Inhibition of human ABL relative to control; conditions: concentration not given here

Vascular endothelial growth factor receptor 2 (Homo sapiens), sequence (P35968 whole entry, the tested form may be a part): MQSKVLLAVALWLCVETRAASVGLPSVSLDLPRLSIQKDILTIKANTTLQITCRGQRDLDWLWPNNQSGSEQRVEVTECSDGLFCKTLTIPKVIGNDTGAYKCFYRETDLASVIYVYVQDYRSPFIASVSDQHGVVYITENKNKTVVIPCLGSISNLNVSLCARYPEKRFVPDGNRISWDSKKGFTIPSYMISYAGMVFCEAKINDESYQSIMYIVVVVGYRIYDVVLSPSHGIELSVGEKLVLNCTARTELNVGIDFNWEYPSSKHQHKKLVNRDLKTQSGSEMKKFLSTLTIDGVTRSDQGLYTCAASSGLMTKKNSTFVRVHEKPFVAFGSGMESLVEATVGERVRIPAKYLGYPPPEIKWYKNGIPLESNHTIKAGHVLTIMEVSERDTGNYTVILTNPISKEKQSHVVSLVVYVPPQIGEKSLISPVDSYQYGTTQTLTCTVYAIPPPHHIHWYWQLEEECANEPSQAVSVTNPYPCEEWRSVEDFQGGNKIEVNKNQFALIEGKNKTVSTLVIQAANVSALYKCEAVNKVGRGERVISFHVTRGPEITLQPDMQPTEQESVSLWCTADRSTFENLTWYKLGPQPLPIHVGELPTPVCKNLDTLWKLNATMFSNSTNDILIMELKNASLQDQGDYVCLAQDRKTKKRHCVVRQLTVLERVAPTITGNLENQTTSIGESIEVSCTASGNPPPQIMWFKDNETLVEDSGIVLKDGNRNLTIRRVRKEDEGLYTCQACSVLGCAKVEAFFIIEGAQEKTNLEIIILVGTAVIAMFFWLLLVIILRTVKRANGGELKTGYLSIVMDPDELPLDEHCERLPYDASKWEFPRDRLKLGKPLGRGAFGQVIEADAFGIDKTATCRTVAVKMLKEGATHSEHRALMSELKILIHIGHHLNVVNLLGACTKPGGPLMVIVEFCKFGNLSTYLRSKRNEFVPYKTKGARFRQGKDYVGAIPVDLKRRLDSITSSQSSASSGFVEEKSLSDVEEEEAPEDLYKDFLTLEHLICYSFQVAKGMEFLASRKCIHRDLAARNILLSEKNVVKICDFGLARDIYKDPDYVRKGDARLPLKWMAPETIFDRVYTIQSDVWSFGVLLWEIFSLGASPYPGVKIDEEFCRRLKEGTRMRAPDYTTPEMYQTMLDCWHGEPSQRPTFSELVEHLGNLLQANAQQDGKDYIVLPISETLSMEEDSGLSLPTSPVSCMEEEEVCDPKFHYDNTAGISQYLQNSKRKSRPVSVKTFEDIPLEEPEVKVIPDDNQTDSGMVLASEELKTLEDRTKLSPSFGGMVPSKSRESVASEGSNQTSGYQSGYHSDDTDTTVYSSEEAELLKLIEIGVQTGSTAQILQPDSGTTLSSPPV
T2 sequence (O43353 whole entry, the tested form may be a part): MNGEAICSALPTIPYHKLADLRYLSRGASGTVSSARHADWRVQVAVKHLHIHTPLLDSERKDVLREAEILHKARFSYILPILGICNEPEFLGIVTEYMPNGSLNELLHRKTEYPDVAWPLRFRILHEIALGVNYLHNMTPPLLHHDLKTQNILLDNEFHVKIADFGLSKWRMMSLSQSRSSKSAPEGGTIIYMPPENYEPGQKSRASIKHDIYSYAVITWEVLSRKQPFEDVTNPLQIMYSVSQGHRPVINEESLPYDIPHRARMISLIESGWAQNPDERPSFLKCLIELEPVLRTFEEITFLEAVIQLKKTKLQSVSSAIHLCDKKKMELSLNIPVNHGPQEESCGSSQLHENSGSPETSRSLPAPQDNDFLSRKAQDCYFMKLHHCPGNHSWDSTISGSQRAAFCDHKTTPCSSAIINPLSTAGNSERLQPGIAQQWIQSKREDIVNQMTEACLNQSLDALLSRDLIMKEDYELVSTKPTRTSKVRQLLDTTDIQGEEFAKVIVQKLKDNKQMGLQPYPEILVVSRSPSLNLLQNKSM
Epidermal growth factor receptor (Homo sapiens), sequence (P00533 whole entry, the tested form may be a part): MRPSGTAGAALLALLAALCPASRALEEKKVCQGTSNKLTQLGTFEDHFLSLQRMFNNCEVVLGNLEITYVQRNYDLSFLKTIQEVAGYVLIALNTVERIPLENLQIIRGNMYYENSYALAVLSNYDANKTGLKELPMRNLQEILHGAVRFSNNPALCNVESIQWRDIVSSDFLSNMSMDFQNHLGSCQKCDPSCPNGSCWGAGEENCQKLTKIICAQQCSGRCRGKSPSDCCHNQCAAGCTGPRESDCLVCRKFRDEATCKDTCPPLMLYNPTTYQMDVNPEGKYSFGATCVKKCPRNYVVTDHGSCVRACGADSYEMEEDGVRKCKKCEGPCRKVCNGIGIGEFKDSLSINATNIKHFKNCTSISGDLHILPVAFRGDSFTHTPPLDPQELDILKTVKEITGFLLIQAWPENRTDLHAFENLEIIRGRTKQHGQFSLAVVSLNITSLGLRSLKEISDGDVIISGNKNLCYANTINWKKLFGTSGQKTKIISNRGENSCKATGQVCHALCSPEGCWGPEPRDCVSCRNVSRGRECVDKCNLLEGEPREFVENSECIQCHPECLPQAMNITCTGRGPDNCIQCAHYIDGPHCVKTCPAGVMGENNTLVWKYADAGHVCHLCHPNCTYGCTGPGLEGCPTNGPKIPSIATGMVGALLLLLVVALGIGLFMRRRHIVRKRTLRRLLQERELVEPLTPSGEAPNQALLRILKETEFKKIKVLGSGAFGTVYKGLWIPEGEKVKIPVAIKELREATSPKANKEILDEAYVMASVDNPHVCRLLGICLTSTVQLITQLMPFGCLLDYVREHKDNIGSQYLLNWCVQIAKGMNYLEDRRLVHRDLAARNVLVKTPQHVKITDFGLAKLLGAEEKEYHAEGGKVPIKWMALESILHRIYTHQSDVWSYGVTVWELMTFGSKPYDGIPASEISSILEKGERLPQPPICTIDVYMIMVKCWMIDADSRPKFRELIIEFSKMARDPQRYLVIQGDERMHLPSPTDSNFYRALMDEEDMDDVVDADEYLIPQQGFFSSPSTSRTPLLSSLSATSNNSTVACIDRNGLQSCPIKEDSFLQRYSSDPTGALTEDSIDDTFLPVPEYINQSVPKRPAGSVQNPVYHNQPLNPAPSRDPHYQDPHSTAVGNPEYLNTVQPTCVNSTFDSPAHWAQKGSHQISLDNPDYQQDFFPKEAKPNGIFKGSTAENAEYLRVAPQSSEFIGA
Serine/threonine-protein kinase 10 (Homo sapiens), sequence (O94804 whole entry, looked up): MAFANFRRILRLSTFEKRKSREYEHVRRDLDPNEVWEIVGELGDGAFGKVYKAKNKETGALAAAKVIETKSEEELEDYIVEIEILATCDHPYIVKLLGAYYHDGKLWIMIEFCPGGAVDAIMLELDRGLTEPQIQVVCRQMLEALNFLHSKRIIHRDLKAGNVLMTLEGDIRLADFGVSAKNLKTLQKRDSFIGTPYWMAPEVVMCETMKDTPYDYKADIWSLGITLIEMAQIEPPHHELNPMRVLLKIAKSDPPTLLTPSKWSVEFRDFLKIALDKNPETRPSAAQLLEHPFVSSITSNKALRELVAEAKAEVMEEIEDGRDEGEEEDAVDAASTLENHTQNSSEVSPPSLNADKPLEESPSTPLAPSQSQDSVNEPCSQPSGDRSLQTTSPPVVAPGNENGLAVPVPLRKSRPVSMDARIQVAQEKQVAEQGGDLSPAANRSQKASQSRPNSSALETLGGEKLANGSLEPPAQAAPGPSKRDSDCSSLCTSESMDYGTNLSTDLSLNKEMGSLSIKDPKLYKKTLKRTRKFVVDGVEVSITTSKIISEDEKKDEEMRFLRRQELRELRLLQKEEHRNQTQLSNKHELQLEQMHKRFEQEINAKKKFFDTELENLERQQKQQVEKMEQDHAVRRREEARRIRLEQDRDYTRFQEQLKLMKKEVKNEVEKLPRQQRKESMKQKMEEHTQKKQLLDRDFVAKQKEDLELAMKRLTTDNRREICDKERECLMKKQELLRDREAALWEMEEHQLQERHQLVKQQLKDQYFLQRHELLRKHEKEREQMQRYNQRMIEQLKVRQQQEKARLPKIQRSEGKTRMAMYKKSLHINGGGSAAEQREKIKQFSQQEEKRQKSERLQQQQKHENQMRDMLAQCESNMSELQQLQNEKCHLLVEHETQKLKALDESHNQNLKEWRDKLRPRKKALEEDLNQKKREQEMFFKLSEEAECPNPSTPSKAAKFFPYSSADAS
MAP kinase-interacting serine/threonine-protein kinase 2 (Homo sapiens), sequence (Q9HBH9 whole entry, looked up): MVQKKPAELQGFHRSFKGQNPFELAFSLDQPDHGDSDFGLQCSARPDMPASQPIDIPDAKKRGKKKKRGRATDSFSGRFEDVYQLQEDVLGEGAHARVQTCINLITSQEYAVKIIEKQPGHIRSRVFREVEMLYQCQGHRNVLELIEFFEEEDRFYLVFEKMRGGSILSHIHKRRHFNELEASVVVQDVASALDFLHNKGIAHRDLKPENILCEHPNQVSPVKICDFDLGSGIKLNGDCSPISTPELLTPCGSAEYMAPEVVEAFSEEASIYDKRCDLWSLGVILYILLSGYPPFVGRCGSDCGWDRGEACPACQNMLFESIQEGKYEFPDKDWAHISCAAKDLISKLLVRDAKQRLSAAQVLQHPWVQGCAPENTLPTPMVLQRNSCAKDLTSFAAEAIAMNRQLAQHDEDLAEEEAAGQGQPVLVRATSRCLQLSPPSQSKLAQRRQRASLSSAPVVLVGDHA

Row | Compound | inhibition [1] | IC50 [2] | IC50 [3] | IC50 [4] | remaining at 2 h, 5 µM [5] | IC50 [6] | remaining at 2 h, 5 µM [7] | Stability [8] | IC50 [9] | IC50 [10] | remaining at 0.75 h, 10 µM [11] | inhibition [12] | inhibition [13] | Stability [7] | remaining at 0.75 h, 10 µM [8] | further results
1 | Cn1cncc1-c1ccc2ncnc(Nc3ccc4scnc4c3)c2c1 | 66% | > 50000 nM | 115 nM | 4 nM | 79% | – | – | – | > 50000 nM | 119 nM | 118% | 68% | inactive | 121% | 108% | –
2 | Cn1cncc1-c1cc2c(Nc3ccc4scnc4c3)ncnc2cc1Cl | – | > 50000 nM | 54 nM | 7 nM | 102% | – | – | – | > 50000 nM | 146 nM | 105% | – | inactive | 122% | 94% | –
3 | CC(C)[N+](C)(CCOC(=O)C1c2ccccc2Oc2ccccc21)C(C)C [PROPANTHELINE] | – | – | – | – | 11% | – | 2% | – | – | – | – | – | – | – | – | –
4 | C1=C(c2cc3ncnc(Nc4ccc5scnc5c4)c3cc2-c2cccs2)COC1 | – | > 50000 nM | 36 nM | 5 nM | 111% | 464 nM | 107% | – | > 50000 nM | 51 nM | 94% | – | – | – | 108% | –
5 | c1csc(-c2ccc3ncnc(Nc4ccc5scnc5c4)c3c2)c1 | 69% | > 50000 nM | 120 nM | 4 nM | – | 398 nM | – | – | > 50000 nM | 106 nM | – | 54% | – | – | – | inhibition [16]: 50%; inhibition [17]: 54%; inhibition [18]: 71%

Second part, led by results:

Row | inhibition [1] | IC50 [2] | IC50 [3] | IC50 [4] | remaining at 2 h, 5 µM [5] | IC50 [6] | remaining at 2 h, 5 µM [7] | Stability [8] | IC50 [9] | IC50 [10] | remaining at 0.75 h, 10 µM [11] | inhibition [12] | inhibition [13] | Stability [7] | remaining at 0.75 h, 10 µM [8] | Compound | further results
6 | 74% | > 50000 nM | 95 nM | 5 nM | 119% | 141 nM | 112% | 124% | > 50000 nM | 119 nM | 93% | – | – | – | – | Cn1cccc1-c1cc2c(Nc3ccc4scnc4c3)ncnc2cc1-c1cccc(CO)c1 | Activity (HT-29): Toxic
7 | 85% | > 50000 nM | 229 nM | 4 nM | 108% | 122 nM | 113% | 123% | > 50000 nM | 225 nM | 118% | – | – | – | – | Cc1ccsc1-c1cc2c(Nc3ccc4scnc4c3)ncnc2cc1-c1cccc(CO)c1 | Activity (HT-29): Toxic
8 | – | > 50000 nM | – | 8 nM | – | – | – | – | > 50000 nM | – | – | – | inactive | – | – | Cn1cccc1-c1cc2c(Nc3ccc4scnc4c3)ncnc2cc1Cl | IC50 [14]: Not Active; IC50 [15]: Not Active
9 | – | > 50000 nM | 58 nM | 3 nM | – | – | – | – | > 50000 nM | 183 nM | 115% | – | inactive | 141% | 105% | Cn1ccnc1-c1cc2c(Nc3ccc4scnc4c3)ncnc2cc1Cl | Stability ([5]; 2 h, 5 µM): 135%
10 | 94% | > 50000 nM | 27 nM | 3 nM | 107% | 117 nM | 108% | 124% | > 50000 nM | 14 nM | 114% | 79% | – | – | – | OCc1ccc(-c2cc3ncnc(Nc4ccc5scnc5c4)c3cc2-c2cccs2)o1 | inhibition [19]: 94%; inhibition [20]: 70%; inhibition [16]: 83%; inhibition [18]: 94%
